The source made the active and inactive calls.
Experiments:
[1] = cytotoxicity toward DRD oncogenic fibroblasts, dose response, cell-based, non-viral oncogenic, luminescence (AID 1934); type: functional; conditions: Homo sapiens
[2] = cytotoxicity in HEK-293T cells, dose response, cytotoxicity control for TCR NF-kB inhibitor project, luminescence, T-cell screen hits (AID 489026); type: functional, cell-based;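 also: cells exposed to compound about 14 hours before the viability readout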
BJ [3] = test: cytotoxicity toward BJ-TERT fibroblasts, dose response, cell-based, RAS-independent, luminescence (AID 1933); type: functional; conditions: Homo sapiens
BJ [4] = test: cells; type: functional, cell-based; conditions: Homo sapiens
BJ [5] = test: cytotoxicity toward BJ-TERT-LT-ST fibroblasts, dose response, cell-based, RAS-independent, luminescence (AID 1935); type: functional; conditions: Homo sapiens;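 also: BJ fibroblasts immortalized with TERT plus LT and ST oncogenes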
[6] = A cytotoxicity screen of small molecule inhibitors of the PhoP region in Salmonella typhi identified in the primary screen. [Related pubchem assays: 1850, 1864, 1985 ]; type: functional
[7] = microbe, parasite or virus in culture; type: functional; conditions: Mycobacterium tuberculosis
[8] = A High Throughput Confirmatory Assay used to Identify Novel Compounds that Inhibit Mycobacterium Tuberculosis in the absence of Glycerol.; type: functional
[9] = Luminescence Cell-Based Dose Retest to Confirm Inhibitors of Cancer Stem Cells. [Related pubchem assays (depositor defined):AID2717, AID2721]; type: functional; conditions: Homo sapiens
[10] = molecular target: T1, Lysosomal acid glucosylceramidase (Homo sapiens, UniProt P04062); test: Dose response cell-based high throughput screening assay to identify enhancers of beta-glucosidase activity. [Related pubchem assays: 784 ]; type: functional
T1 sequence (P04062 whole entry): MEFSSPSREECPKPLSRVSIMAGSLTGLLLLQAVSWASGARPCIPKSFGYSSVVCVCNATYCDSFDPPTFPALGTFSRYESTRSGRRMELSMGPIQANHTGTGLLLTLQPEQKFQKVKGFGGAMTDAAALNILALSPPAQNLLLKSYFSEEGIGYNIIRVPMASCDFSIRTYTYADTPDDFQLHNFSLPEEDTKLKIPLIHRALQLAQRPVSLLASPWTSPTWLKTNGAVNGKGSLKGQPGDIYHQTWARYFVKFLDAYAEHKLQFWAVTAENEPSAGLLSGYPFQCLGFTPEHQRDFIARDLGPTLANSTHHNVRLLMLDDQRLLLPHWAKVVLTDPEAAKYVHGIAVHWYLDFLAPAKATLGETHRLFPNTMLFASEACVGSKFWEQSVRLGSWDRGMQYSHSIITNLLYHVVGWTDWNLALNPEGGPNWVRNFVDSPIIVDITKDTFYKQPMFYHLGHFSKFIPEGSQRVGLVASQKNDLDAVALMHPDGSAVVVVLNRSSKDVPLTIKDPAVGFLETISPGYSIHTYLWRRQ

Protein RecA = molecular target: T2, Protein RecA (Mycobacterium tuberculosis, UniProt P9WHJ3); test: Fluorescence Cell-Free Homogeneous Dose Retest to Identify Inhibitors of RecA-Intein Splicing Activity. [Related pubchem assays (depositor defined):AID2097, AID2223, AID489010, AID492950]; type: functional
T2 sequence (P9WHJ3 whole entry): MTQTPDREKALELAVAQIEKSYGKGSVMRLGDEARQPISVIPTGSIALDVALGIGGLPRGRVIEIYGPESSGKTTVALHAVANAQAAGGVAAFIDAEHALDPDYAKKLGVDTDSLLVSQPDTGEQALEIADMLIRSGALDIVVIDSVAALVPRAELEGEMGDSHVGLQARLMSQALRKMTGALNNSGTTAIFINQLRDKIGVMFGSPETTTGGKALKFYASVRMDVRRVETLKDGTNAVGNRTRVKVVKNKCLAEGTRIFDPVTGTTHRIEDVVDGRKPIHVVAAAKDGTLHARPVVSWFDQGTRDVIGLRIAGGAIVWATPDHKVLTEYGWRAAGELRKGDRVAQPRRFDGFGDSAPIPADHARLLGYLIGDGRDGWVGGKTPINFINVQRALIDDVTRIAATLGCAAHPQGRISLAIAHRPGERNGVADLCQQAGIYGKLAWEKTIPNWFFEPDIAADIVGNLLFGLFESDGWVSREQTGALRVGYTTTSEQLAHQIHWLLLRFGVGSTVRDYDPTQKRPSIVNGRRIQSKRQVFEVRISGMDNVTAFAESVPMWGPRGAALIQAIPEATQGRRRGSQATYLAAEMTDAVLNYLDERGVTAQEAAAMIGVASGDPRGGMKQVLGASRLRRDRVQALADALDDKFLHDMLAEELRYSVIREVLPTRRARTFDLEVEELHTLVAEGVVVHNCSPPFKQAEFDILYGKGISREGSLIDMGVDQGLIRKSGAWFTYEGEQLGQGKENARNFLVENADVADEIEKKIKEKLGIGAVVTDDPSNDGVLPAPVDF

[11] = molecular target: T3, Replicative DNA helicase DnaB (Mycobacterium tuberculosis, UniProt P9WMR3); test: DnaB intein splicing inhibitors, dose response, biochemical, cell-free fluorescence (AID 449749); type: functional
T3 sequence (P9WMR3 whole entry): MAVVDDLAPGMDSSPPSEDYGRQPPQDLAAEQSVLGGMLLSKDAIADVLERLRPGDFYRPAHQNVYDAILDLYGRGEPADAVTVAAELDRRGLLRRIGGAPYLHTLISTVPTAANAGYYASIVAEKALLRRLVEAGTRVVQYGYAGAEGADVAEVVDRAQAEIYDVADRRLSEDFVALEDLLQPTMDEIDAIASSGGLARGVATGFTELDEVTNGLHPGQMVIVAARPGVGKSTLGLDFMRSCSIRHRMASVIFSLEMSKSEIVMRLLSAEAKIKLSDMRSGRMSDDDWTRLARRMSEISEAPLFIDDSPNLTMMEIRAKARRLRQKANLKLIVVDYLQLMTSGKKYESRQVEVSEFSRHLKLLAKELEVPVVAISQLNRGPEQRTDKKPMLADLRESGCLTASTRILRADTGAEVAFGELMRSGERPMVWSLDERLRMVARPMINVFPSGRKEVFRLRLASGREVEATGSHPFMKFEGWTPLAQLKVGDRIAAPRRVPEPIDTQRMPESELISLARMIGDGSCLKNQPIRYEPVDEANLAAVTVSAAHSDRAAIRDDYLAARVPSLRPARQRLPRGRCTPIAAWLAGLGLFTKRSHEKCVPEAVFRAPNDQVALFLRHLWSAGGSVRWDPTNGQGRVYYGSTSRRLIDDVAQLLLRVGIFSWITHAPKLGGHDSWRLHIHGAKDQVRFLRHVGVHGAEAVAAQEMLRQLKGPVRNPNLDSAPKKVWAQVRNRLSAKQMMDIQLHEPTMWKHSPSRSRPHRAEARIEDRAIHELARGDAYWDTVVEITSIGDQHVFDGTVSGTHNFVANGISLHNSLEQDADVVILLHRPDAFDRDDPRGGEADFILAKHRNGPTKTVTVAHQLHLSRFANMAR

[12] = molecular target: Eukaryotic translation initiation factor 4E (Mus musculus, UniProt P63073); test: eIF4E–eIF4G protein interaction inhibitors, dose response, biochemical, TR-FRET (AID 855); type: functional;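 also: potency for disrupting eIF4E binding to eIF4GI seen as loss of FRET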
[13] = A549 cell cytotoxicity, dose response, cytotoxicity control, plate reader, cherry-pick, antagonist series (AID 743412); type: functional, cell-based
[14] = LGR2 antagonists, dose response, cell-based, HEK293, CRE-luciferase reporter, cherry pick, set 2 (AID 743343); type: functional;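 also: transfected cells were stimulated with diluted bursicon conditioned medium after compound addition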
[15] = MC4R antagonists, dose response, counter-screen for LGR2 antagonist project, cell-based, plate reader, cherry pick (AID 743444); type: functional;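 also: transfected HEK 293 cells stimulated with alpha-MSH peptide; potency of inhibitors of the alpha-MSH evoked signal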
[16] = HepG2 cell cytotoxicity, dose response, cytotoxicity control, plate reader, cherry-pick, antagonist series (AID 743416); type: functional, cell-based
[17] = THP-1 cell cytotoxicity, dose response, cytotoxicity control for non-replicating M. tuberculosis project (AID 489025); type: functional
cells = type: functional
[18] = HEK293 cell cytotoxicity, dose response, cytotoxicity control, plate reader, cherry-picked samples (AID 743446); type: functional, cell-based
Cytochrome P450 1A2 = molecular target: T4, Cytochrome P450 1A2 (Homo sapiens, UniProt P05177);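 also: PubChem cytochrome P450 panel assay, CYP1A2 panel member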
T4 sequence (P05177 whole entry): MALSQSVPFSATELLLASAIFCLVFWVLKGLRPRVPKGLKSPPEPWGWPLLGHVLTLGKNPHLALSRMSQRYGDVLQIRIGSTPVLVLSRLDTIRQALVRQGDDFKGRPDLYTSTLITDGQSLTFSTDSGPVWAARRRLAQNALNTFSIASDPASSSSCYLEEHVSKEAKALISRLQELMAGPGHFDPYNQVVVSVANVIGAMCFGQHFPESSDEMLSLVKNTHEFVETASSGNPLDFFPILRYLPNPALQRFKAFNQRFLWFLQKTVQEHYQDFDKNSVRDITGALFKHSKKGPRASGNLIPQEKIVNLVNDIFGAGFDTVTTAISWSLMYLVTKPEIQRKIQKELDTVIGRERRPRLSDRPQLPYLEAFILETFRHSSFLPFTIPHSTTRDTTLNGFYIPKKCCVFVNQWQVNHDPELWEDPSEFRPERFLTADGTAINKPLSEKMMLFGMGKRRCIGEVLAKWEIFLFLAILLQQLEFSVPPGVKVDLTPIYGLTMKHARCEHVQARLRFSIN

Cytochrome P450 3A4 = Cytochrome P450 3A4 (Homo sapiens, UniProt P08684);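 also: CYP3A4 tested as one member of a cytochrome P450 panel screen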
Cytochrome P450 2C19 = Cytochrome P450 2C19 (Homo sapiens, UniProt P33261); test: Cytochrome panel assay with activity outcomes. Panel member name: p450-cyp2c19 Compounds with AC50 equal or less than 10 uM are considered active; type: functional; conditions: read-out: AC50
Sequence of Cytochrome P450 2C19 (P33261 whole entry): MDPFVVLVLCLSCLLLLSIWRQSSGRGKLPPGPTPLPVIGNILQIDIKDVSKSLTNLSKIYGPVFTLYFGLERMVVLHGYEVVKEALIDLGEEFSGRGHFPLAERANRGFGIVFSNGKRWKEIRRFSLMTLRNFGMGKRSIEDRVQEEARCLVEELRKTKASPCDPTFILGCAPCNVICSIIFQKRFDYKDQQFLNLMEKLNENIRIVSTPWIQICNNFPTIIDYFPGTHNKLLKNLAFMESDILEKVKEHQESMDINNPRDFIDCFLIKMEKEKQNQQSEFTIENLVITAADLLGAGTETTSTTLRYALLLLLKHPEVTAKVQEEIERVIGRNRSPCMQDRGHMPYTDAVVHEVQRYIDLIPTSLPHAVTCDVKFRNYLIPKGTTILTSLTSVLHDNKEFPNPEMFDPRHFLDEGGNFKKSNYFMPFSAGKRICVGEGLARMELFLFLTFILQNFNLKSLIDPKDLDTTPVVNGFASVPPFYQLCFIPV

Sequence of Eukaryotic translation initiation factor 4E (P63073 whole entry): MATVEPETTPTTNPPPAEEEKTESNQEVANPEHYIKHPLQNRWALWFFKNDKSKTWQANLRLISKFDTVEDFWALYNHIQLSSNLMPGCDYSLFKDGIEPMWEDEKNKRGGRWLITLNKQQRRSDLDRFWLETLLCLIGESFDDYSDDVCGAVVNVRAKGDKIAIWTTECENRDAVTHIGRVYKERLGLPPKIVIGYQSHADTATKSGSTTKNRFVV
Sequence of Cytochrome P450 3A4 (P08684 whole entry): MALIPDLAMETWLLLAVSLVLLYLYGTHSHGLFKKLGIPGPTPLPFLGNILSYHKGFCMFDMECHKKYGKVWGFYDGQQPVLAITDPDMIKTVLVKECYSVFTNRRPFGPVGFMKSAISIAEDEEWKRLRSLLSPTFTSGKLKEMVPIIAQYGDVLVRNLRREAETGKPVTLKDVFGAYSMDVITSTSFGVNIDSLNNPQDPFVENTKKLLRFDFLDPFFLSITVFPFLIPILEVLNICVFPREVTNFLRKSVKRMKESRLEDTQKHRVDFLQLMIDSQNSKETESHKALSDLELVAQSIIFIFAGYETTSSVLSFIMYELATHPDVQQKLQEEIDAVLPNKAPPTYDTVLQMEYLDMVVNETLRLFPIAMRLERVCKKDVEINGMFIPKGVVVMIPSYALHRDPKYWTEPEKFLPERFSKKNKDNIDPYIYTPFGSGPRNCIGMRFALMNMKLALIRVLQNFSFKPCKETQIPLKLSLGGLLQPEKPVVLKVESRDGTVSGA

With `CCOc1ccc(S(=O)(=O)NCc2ccccn2)cc1NC(=O)c1ccccc1F` the EC50 [1] was 12.9 µM (inconclusive), the IC50 [2] was > 80 µM (inactive) and the EC50 (BJ [3]) was 2.76 µM (active). The EC50 (BJ [4]) was 21.4 µM (active) and the EC50 (BJ [5]) was 1.79 µM (active).
In the case of `CC1CCCN(C(=O)Cn2c(=O)oc3cc(S(=O)(=O)N4CCCCC4)ccc32)C1` (stereo unspecified), the EC50 [6] is reported as > 50 µM (active).
For `COC(=O)c1ccc(CSc2nc(C(F)(F)F)c3c(c2C#N)CCC3)o1`, the CC50 [7] was > 40 µM (active) and the IC50 [8] was > 100 µM (active).
With `COC(=O)Nc1ccc(S(=O)(=O)N2c3ccccc3CCC2C)cc1` (stereo unspecified) the AC50 [9] was 0.876 µM (active) and the IC50 [2] was > 80 µM (inactive).
For `Cc1cc(C)cc(N2CCN(C(=O)N3CCOCC3)CC2)c1`, the EC50 [10] was > 50 µM (not active).
For `Cc1ccc(-c2ccc(C3C(C#N)=C(N)Oc4[nH]nc(C)c43)o2)cc1` (stereo unspecified), the EC50 (Protein RecA) was 4.25 µM (active), the IC50 [8] was > 100 µM (active) and the AC50 [11] was > 380 µM (inactive).
For `O=C(CCS(=O)(=O)c1ccc(Br)cc1)N1CCN(Cc2ccccc2)CC1`, the EC50 [10] was > 50 µM (not active).
In the case of `CCOc1ccc(OCCSc2nc3ccccc3[nH]2)cc1`, the EC50 [6] is reported as > 50 µM (active).
For `COC(=O)/C=C/C(=O)N1CCN(c2ccccc2C)CC1`, the IC50 [12] was > 64 µM (inactive).
In the case of `Cc1ccnc(NC(=O)c2cc3ccccc3o2)c1`, the CC50 [7] is reported as > 40 µM (active), the AC50 [13] is reported as 30 µM (active) and the AC50 [14] is reported as 2.27 µM (active). For the same compound, the AC50 [15] was 2.06 µM (active), the AC50 [16] was > 52 µM (inactive) and the IC50 [8] was > 50 µM (active). For the same compound, the CC50 [17] was > 40 µM (active), the IC50 (cells) was 19.3 µM (active) and the AC50 [18] was 52 µM (active).
In the case of `O=C(C1CCN(S(=O)(=O)c2cccnc2)CC1)N1CCN(c2cccc(Cl)c2)CC1`, the IC50 [12] is reported as > 64 µM (inactive).
With `O=C(CN(Cc1ccco1)C(=O)CNS(=O)(=O)c1ccc(Cl)cc1)NCc1ccc(F)cc1` the EC50 [6] was > 50 µM (active).
For `Cc1ccc(C)c(NC(=O)C2CC(O)CN2C(=O)OC(C)(C)C)c1` (stereo unspecified), the AC50 (Cytochrome P450 1A2) was 31.6 µM (inconclusive), the AC50 (Cytochrome P450 3A4) was 25.1 µM (inconclusive) and the AC50 (Cytochrome P450 2C19) was 28.2 µM (inconclusive). For the same compound, the EC50 [10] was > 50 µM (not active).
With `O=C(O)CCSc1nnc(SCC(=O)NCC(F)(F)F)s1` the IC50 [12] was > 64 µM (inactive).
In the case of `C=CCN(C(=O)Cn1nnc2ccccc21)C(C(=O)NCCOC)c1ccc(OC)cc1OC` (stereo unspecified), the EC50 [10] is reported as > 50 µM (not active).
In the case of `Cc1c(Cl)cccc1N(CC(=O)O)S(C)(=O)=O`, the EC50 [10] is reported as > 50 µM (not active).
With `Cc1ccc(NC(=O)C(=O)NNC(=O)c2cccs2)cc1` the EC50 [6] was > 50 µM (active).

Source: ChEMBL document CHEMBL1201862, “PubChem BioAssay data set” (2004)
